The values that follow come from ChEMBL document CHEMBL6120940, “Discovery of N-Aryl-N'-[4-(aryloxy)cyclohexyl]squaramide-Based Inhibitors of LXR/SREBP-1c Signaling Pathway Ameliorating Steatotic Liver Disease: Navigating the Role of SIRT6 Activation” (J Med Chem, 2024).

Series [1] concerns HepG2. In words: Cytotoxicity against human HepG2 cells at 10 uM measured after 24 hrs by CCK-8 method relative to control. Format: functional. (Tetrazolium dyes change colour on reduction, which living cells bring about.)
Series [2] is described as follows: Metabolic stability in rat liver microsomes at 1 uM measured after 30 mins in presence of NADPH regeneration system by LC-MS/MS analysis. It counts as ADME, Microsome. To be noted: read-out: Stability.
Series [3] is described as follows: Stability in mouse plasma measured after 120 mins by LC-MS/MS analysis. It counts as ADME, cell-free. To be noted: read-out: Stability.
For the next series, the target named is T1, CYP1A2 (Homo sapiens, UniProt P05177).
T1 sequence (P05177 whole entry): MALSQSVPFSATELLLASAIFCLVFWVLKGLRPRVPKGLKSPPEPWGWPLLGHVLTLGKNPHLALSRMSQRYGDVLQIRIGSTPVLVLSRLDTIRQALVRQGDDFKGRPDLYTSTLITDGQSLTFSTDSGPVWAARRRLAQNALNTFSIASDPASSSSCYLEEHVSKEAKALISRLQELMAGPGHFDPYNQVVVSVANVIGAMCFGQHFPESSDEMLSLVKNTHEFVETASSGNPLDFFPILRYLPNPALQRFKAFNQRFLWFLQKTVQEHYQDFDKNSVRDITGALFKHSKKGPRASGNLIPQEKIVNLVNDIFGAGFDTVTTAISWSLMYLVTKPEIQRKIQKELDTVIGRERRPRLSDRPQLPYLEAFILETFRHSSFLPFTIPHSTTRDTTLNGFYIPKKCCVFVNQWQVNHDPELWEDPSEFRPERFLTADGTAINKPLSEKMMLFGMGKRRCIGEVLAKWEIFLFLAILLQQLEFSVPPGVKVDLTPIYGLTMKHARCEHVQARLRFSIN
In words: Inhibition of CYP1A2 in human liver microsomes at 10 uM using phenacetin as substrate preincubated for 5 mins followed by NADPH generating system addition and measured after 15 mins relative to control. It counts as ADME, Microsome. To be noted: probe phenacetin, time 20 min. For orientation: Liver microsomes are a subcellular fraction often used to study metabolism.

The target of a further series is CYP2C9 (Homo sapiens, UniProt P11712). The experiment in a line: Inhibition of CYP2C9 in human liver microsomes at 10 uM using diclofenac as substrate preincubated for 5 mins followed by NADPH generating system addition and measured after 15 mins relative to control. To be noted: probe diclofenac, time 20 min. Format: ADME, Microsome.
The target in a further series is CYP2C19 (Homo sapiens, UniProt P33261). In words: Inhibition of CYP2C19 in human liver microsomes at 10 uM using S-mephenytoin as substrate preincubated for 5 mins followed by NADPH generating system addition and measured after 15 mins relative to control. Format: ADME, Microsome. To be noted: probe S-mephenytoin, time 20 min.
Series [4] is described as follows: Clearance in 16 hrs fasted ICR mouse at 2 mg/kg, iv measured upto 8 hrs by LC-MS/MS analysis. It counts as ADME, organism-based. To be noted: in vivo.
Series [5] in a line: AUC infinity in 16 hrs fasted ICR mouse at 2 mg/kg, iv measured upto 8 hrs by LC-MS/MS analysis. It counts as ADME, organism-based. To be noted: in vivo.
Series [6] can be described thus: Volume of distribution at steady state in 16 hrs fasted ICR mouse at 2 mg/kg, iv measured upto 8 hrs by LC-MS/MS analysis. Format: ADME, organism-based. To be noted: in vivo, read-out: Vdss.
The nature of series [7]: Terminal half life in 16 hrs fasted ICR mouse at 20 mg/kg, po measured upto 8 hrs by LC-MS/MS analysis. It counts as ADME, organism-based. To be noted: in vivo, read-out: beta t1/2 (converted).
The test system of series [8] is HepG2. In words: Cytotoxicity against human HepG2 cells at >30 uM measured after 24 hrs by CCK-8 method. Format: functional, cell-based.
The test system of series [9] is HepG2. In words: Downregulation of SREBP-1c expression level in human HepG2 cells pretreated with compound for 30 mins followed by T0901317 addition and measured after 12 hrs by RT-qPCR analysis. It counts as functional, cell-based. To be noted: dose 5-10 µM, time 12.5 hrs. Background: In qPCR the cycle at which signal appears reflects the starting amount.
In series [10] the test system is HepG2. The experiment in a line: Downregulation of FASN mRNA level in human HepG2 cells at 10 uM pretreated with compound for 30 mins followed by T0901317 addition and measured after 12 hrs by RT-qPCR analysis. To be noted: time 12.5 hrs. It counts as functional, cell-based.
Series [11] has as its system HepG2. The experiment in a line: Downregulation of ACACA mRNA level in human HepG2 cells at 10 uM pretreated with compound for 30 mins followed by T0901317 addition and measured after 12 hrs by RT-qPCR analysis. Format: functional, cell-based. To be noted: time 12.5 hrs.
Series [12] deals with T2, Oxysterols receptor LXR-alpha (Homo sapiens) (UniProt Q13133).
T2 sequence (whole entry): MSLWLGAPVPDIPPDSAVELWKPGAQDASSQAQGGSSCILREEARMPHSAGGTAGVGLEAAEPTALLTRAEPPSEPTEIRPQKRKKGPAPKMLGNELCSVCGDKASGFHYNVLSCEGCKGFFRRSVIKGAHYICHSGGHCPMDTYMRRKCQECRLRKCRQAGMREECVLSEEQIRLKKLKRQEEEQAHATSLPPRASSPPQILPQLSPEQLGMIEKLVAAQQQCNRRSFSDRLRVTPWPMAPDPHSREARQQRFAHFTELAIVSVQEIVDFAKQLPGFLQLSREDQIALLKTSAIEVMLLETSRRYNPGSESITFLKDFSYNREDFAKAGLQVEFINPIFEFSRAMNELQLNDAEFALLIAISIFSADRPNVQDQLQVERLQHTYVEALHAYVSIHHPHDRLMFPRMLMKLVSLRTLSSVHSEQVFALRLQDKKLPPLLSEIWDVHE
The experiment in a line: Inhibition of LXRalpha in human HepG2 cells expressing LXRE at 2.5 to 5 uM preincubated for 30 mins followed by T0901317 addition and measured after 24 hrs by Dual-glo luciferase assay. Format: cell-based. To be noted: dose 2.5-5 µM, time 24.5 hrs.

Another series has as its system Hepatocyte. The experiment in a line: Downregulation of Cd36 mRNA level in mouse Hepatocyte at 10 uM incubated for 30 mins followed by T0901317 addition by RT-qPCR analysis. It counts as functional, cell-based.
Series [13] relates to HepG2. In words: Downregulation of LXR level in human HepG2 cells at 10 uM preincubated for 30 mins followed by OSS128167 addition and measured after 12 hrs. Format: functional, cell-based. To be noted: time 12.5 hrs.
Series [14] concerns HepG2. In words: Downregulation of SREBP-1c level in human HepG2 cells at 10 uM preincubated for 30 mins followed by OSS128167 addition and measured after 12 hrs. It counts as functional, cell-based. To be noted: time 12.5 hrs.
Series [15] relates to HepG2. The experiment in a line: Downregulation of SREBP-1 level in human HepG2 cells transfected with SIRT6 SiRNA at 10 uM preincubated for 30 mins followed by T0901317 addition and measured after 12 hrs. To be noted: time 12.5 hrs. It counts as functional, cell-based.
In series [16] the test system is Mus musculus. The experiment in a line: Anti-lipogenic activity against high fat died induced male C57BL/6J mouse obesity model assessed as reduction AST level in serum at 15 mg/kg, po administered three times per week and measured for 5 weeks. Format: functional, organism-based.
The subject of series [17] is Mus musculus. In words: Anti-lipogenic activity against high fat died induced male C57BL/6J mouse obesity model assessed as reduction hepatic triglyceride level at 15 mg/kg, po administered three times per week and measured for 5 weeks by H and E staining based analysis. Format: functional, organism-based.
Series [18] concerns Mus musculus. In words: Anti-lipogenic activity against high fat died induced male C57BL/6J mouse obesity model assessed as downregulation of Srebp-1c level at 15 mg/kg, po administered three times per week and measured after 5 weeks by RT-qPCT analysis. It counts as functional, organism-based.
The test system of series [19] is Mus musculus. In words: Anti-lipogenic activity against high fat died induced male C57BL/6J mouse obesity model assessed as downregulation of Fasn level at 15 mg/kg, po administered three times per week and measured after 5 weeks by RT-qPCT analysis. It counts as functional, organism-based.
Series [20] has as its system Mus musculus. The experiment in a line: Anti-lipogenic activity against high fat died induced male C57BL/6J mouse obesity model assessed as downregulation of Cxcl1 mRNA level at 15 mg/kg, po administered three times per week and measured after 5 weeks by RT-qPCT analysis. Format: functional, organism-based.

A word on the inhibition: it is the drop in the measured response relative to a control, in per cent. A word on the clearance: it is the volume of plasma or blood freed of the substance per unit of time. A high value points to a high capacity for elimination. In general, AUC(0-inf) refers to the area under the concentration-time curve extrapolated to infinity. A high value points to more exposure.

Each structure is given as a SMILES string. Activity calls are given as the source filed them. No cut-off for these calls is given here.

Chain of CYP2C9 (P11712 whole entry): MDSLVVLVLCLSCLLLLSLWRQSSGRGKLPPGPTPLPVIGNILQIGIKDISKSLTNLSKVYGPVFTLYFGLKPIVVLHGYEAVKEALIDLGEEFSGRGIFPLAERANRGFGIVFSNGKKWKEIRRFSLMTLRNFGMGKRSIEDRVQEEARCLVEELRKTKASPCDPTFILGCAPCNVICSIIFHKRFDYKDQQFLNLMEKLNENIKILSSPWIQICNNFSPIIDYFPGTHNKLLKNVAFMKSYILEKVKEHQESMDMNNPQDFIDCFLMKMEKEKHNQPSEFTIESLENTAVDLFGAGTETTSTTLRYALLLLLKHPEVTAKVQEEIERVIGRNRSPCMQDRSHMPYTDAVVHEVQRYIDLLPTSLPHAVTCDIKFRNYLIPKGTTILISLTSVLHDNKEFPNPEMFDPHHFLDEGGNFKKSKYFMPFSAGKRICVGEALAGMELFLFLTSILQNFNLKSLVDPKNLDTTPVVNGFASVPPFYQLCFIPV
Chain of CYP2C19 (P33261 whole entry): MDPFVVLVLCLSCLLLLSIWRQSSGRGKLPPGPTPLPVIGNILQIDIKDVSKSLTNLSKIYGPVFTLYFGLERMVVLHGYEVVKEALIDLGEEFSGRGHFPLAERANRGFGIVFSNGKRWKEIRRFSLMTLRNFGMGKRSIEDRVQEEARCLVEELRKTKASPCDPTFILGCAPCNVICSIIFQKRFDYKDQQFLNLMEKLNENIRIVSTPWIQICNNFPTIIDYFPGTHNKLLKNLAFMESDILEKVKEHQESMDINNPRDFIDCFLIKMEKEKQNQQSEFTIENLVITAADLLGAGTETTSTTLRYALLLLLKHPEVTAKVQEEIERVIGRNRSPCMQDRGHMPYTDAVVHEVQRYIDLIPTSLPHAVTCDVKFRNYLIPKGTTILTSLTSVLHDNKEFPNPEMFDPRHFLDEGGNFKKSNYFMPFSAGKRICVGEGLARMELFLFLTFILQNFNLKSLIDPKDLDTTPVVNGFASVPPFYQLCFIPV

`COc1ccccc1Nc1c(N[C@H]2CC[C@H](Oc3ccc([N+](=O)[O-])cc3)CC2)c(=O)c1=O`: the Activity in the series on HepG2 [1] was 90.3%; in the series on HepG2 [9], “Dose-dependent-effect”. Also, the remaining at 0.5 h, 1 µM in series [2] amounted to 32.5%. Further, the remaining at 2 h in series [3] is > 100%. The inhibition at 0.25 h, 10 µM against CYP1A2 was 98%; against CYP2C9, 60.5%; against CYP2C19, 41.1%. Further, the clearance in series [4] is 13.3 mL/min/kg. This compound had an AUC(0-inf) in series [5] of 2400 ng·h/mL. Moreover, the Vd in [6] stood at 1.1 L/kg. Moreover, in series [7], the half-life was 1.4 h. Besides, the result in the series on HepG2 [8], in the series with HepG2 [10], in the series on HepG2 [11], in the series on Mus musculus [16], with Mus musculus [17] and in the series on Mus musculus [18] was Active. The result in the series with Mus musculus [19] and in the series on Mus musculus [20] was Active. Further, the inhibition entry in series [12] was “Active”. Moreover, the outcome with Hepatocyte, in the series with HepG2 [13], with HepG2 [14] and with HepG2 [15] was inactive.
